# Laboratory results taken from patent US8952024B2, “Herbicidal pyrimidone derivatives” (E I du Pont de Nemours and Company, priority 2009, dated 2015).
# Assays:
# Assay type in all cases: in vivo
# [1] = system: large crabgrass (Digitaria sanguinalis); test: Test A pre-/postemergence plant response
# In short: (§1)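 Greenhouse trial, ~10 days. Soil (loam/sand) sprayed preemergence after seeding; emerged plants (1–2 leaf, 2–10 cm) sprayed postemergence in parallel. Response = visual injury vs untreated control, 0–100.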
# [2] = system: velvetleaf (Abutilon theophrasti); test: Test A pre-/postemergence plant response
# In short: as §1
# corn (Zea mays) = test: Test A pre-/postemergence plant response
# In short: as §1
# [3] = system: wheat (Triticum aestivum); test: Test A pre-/postemergence plant response
# In short: as §1
# [4] = system: barnyardgrass (Echinochloa crus-galli); test: Test A pre-/postemergence plant response
# In short: as §1
# [5] = system: giant foxtail (Setaria faberii); test: Test A pre-/postemergence plant response
# In short: as §1
# [6] = system: chickweed (Stellaria media); test: Test B postemergence plant response; conditions: for Chickweed plant response rating (0 to 100 scale): 62 g ai/ha, 0 is no effect
# In short: (§2)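 Visual ratings from 0 (no effect) to 100 (complete control), made against controls 13–15 days after treatment, kept in a greenhouse. Compounds were applied postemergence to potted plants at the 1- to 4-leaf stage (2–18 cm).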
# [7] = system: winter barley (Hordeum vulgare); test: Test B postemergence plant response; conditions: for Barley plant response rating (0 to 100 scale): 62 g ai/ha, 0 is no effect
# In short: as §2
# [8] = system: canarygrass (Phalaris minor); test: Test B postemergence plant response; conditions: for Canarygrass plant response rating (0 to 100 scale): 62 g ai/ha, 0 is no effect
# In short: as §2
# [9] = system: windgrass (Apera spica-venti); test: Test B postemergence plant response; conditions: for Windgrass plant response rating (0 to 100 scale): 62 g ai/ha, postemergence, 0 is no effect, 100 is complete control; for Plant response rating, Windgrass: Postemergence
# In short: as §2
# [10] = Postemergence, 125 g ai/ha, 0 to 100 scale where 0 is no effect and 100 is complete control
# [11] = Postemergence, 500 g ai/ha, 0 to 100 scale, 0 = no effect, 100 = complete control, approx. ten days
# [12] = Preemergence, 125 g ai/ha, 0 to 100 scale, 0 = no effect, 100 = complete control
# [13] = Preemergence, 500 g ai/ha, visual injury, 0 to 100 scale (0 no effect, 100 complete control), approx. ten days
# [14] = 31 g ai/ha, postemergence, scale 0 to 100, 0 is no effect, 100 is complete control
# [15] = postemergence, 100 is complete control, 13 to 15 days
# [16] = Postemergence, 125 g ai/ha, scale 0 to 100 (0 no effect, 100 complete control)
# [17] = Postemergence, 250 g ai/ha, scale 0 to 100 (0 no effect, 100 complete control)
# [18] = 125 g ai/ha, scale 0 to 100 (0 no effect, 100 complete control)
# [19] = 16 g ai/ha, Postemergence, 0 to 100 scale
# [20] = Postemergence, 31 g ai/ha, 0 to 100 scale (0 no effect, 100 complete control)
# [21] = 31 g ai/ha, 0 to 100 scale (0 no effect, 100 complete control)
# [22] = Postemergence, 250 g ai/ha, scale 0 to 100 (0 no effect, 100 complete control), 13 to 15 days
Compound,"Plant response rating, Crabgrass, Large [1, 10]","Plant response rating, Crabgrass, Large [1, 11]","Plant response rating, Crabgrass, Large [1, 12]","Plant response rating, Crabgrass, Large [1, 13]","Plant response rating, Velvetleaf [2, 10]","Plant response rating, Velvetleaf [2, 11]","Plant response rating, Velvetleaf [2, 12]","Plant response rating, Velvetleaf [2, 13]","Plant response rating, Corn (corn (Zea mays); [10])","Plant response rating, Corn (corn (Zea mays); [11])","Plant response rating, Corn (corn (Zea mays); [12])","Plant response rating, Corn (corn (Zea mays); [13])","Plant response rating, Wheat [3, 10]","Plant response rating, Wheat [3, 11]","Plant response rating, Wheat [3, 12]","Plant response rating, Wheat [3, 13]","Plant response rating, Barnyardgrass [4, 10]","Plant response rating, Barnyardgrass [4, 11]","Plant response rating, Barnyardgrass [4, 12]","Plant response rating, Barnyardgrass [4, 13]",also measured
COCCn1c(-c2ccco2)ncc(C(=O)C2=C(O)CCCC2=O)c1=O [Compound 111],90,90,90,100,100,100,90,100,0,30,0,0,0,0,0,0,90,90,30,90,"Plant response rating, Foxtail, Giant [5, 10]: 60; Plant response rating, Foxtail, Giant [5, 11]: 90; Plant response rating, Foxtail, Giant [5, 13]: 70; Plant response rating, Chickweed [6, 14]: 95; Chickweed plant response rating (0 to 100 scale) [6, 15]: 100; Plant response rating, Chickweed [6, 16]: 100; Plant response rating, Chickweed [6, 17]: 100; Plant response rating, Barley [7, 14]: 0; Barley plant response rating (0 to 100 scale) [7, 15]: 0; Plant response rating, Barley [7, 16]: 5; Plant response rating, Barley [7, 17]: 30; Plant response rating, Canarygrass [8, 14]: 0; Canarygrass plant response rating (0 to 100 scale) [8, 15]: 0; Plant response rating, Canarygrass [8, 16]: 0; Plant response rating, Canarygrass [8, 17]: 15; Windgrass plant response rating (0 to 100 scale) ([9]; 13 to 15 days): 30; Plant response rating, Windgrass [9, 18]: 35"
CCn1c(-c2cc(F)cc(F)c2)ncc(C(=O)C2=C(O)CCCC2=O)c1=O [Compound 122],70,90,90,100,100,100,100,100,0,30,0,0,0,50,0,40,60,80,30,100,"Plant response rating, Foxtail, Giant [5, 10]: 70; Plant response rating, Foxtail, Giant [5, 11]: 80; Plant response rating, Foxtail, Giant [5, 12]: 30; Plant response rating, Foxtail, Giant [5, 13]: 100; Plant response rating, Chickweed [6, 19]: 65; Chickweed plant response rating (0 to 100 scale) [6, 15]: 70; Plant response rating, Chickweed [6, 20]: 70; Plant response rating, Chickweed [6, 16]: 80; Plant response rating, Barley [7, 19]: 0; Barley plant response rating (0 to 100 scale) [7, 15]: 10; Plant response rating, Barley [7, 20]: 0; Plant response rating, Barley [7, 16]: 50; Plant response rating, Canarygrass [8, 19]: 0; Canarygrass plant response rating (0 to 100 scale) [8, 15]: 35; Plant response rating, Canarygrass [8, 20]: 10; Plant response rating, Canarygrass [8, 16]: 45; Plant response rating, Windgrass ([9]; 16 g ai/ha, 0 to 100 scale): 5; Windgrass plant response rating (0 to 100 scale) ([9]; 13 to 15 days): 30; Plant response rating, Windgrass [9, 21]: 5; Plant response rating, Windgrass [9, 18]: 50"
COCCCn1c(-c2cccc(F)c2)ncc(C(=O)C2=C(O)CCCC2=O)c1=O [Compound 126],90,90,90,100,100,100,80,100,10,60,0,20,0,20,0,20,80,90,70,100,"Plant response rating, Foxtail, Giant [5, 10]: 70; Plant response rating, Foxtail, Giant [5, 11]: 80; Plant response rating, Foxtail, Giant [5, 12]: 60; Plant response rating, Foxtail, Giant [5, 13]: 90; Chickweed plant response rating (0 to 100 scale) [6, 15]: 80; Plant response rating, Chickweed [6, 20]: 65; Plant response rating, Chickweed [6, 16]: 98; Plant response rating, Chickweed [6, 17]: 98; Barley plant response rating (0 to 100 scale) [7, 15]: 5; Plant response rating, Barley [7, 20]: 5; Plant response rating, Barley [7, 16]: 15; Plant response rating, Barley [7, 17]: 40; Canarygrass plant response rating (0 to 100 scale) [8, 15]: 40; Plant response rating, Canarygrass [8, 20]: 15; Plant response rating, Canarygrass [8, 16]: 60; Plant response rating, Canarygrass [8, 17]: 90; Windgrass plant response rating (0 to 100 scale) ([9]; 13 to 15 days): 10; Plant response rating, Windgrass [9, 21]: 10; Plant response rating, Windgrass [9, 18]: 40"
CCCn1c(-c2cccc(F)c2)ncc(C(=O)C2=C(O)CCCC2=O)c1=O [Compound 127],80,90,90,100,100,100,70,100,20,20,0,0,0,0,0,0,80,90,40,100,"Plant response rating, Foxtail, Giant [5, 10]: 70; Plant response rating, Foxtail, Giant [5, 11]: 80; Plant response rating, Foxtail, Giant [5, 12]: 50; Plant response rating, Foxtail, Giant [5, 13]: 90; Chickweed plant response rating (0 to 100 scale) [6, 15]: 75; Plant response rating, Chickweed [6, 20]: 65; Plant response rating, Chickweed [6, 16]: 98; Plant response rating, Chickweed [6, 22]: 98; Barley plant response rating (0 to 100 scale) [7, 15]: 20; Plant response rating, Barley [7, 20]: 0; Plant response rating, Barley [7, 16]: 35; Plant response rating, Barley [7, 22]: 60; Canarygrass plant response rating (0 to 100 scale) [8, 15]: 10; Plant response rating, Canarygrass [8, 20]: 5; Plant response rating, Canarygrass [8, 16]: 35; Plant response rating, Canarygrass [8, 22]: 60; Windgrass plant response rating (0 to 100 scale) ([9]; 13 to 15 days): 50; Plant response rating, Windgrass [9, 21]: 25; Plant response rating, Windgrass [9, 18]: 55; Plant response rating, Windgrass ([9]; 250 g ai/ha, scale 0 to 100 (0 no effect, 100 complete control), 13 to 15 days): 70"
